Data published in patent publication US12421254B2, “KRAS modulators and uses thereof” (Quanta Therapeutics, Inc., priority 2023, dated 2025).
Where two headings read alike, the source gives them in different places.

Tests used:
[1] = target: T1, w.t. KRAS/RAF1 (Homo sapiens, UniProt P01116); test: Protein-protein interaction (PPI) HTRF assay w.t. KRAS/RAF1; type: binding; conditions: Table 3; wt KRAS/RAF1
T1 construct: KRAS (1-169) proteins were expressed in BL21 (DE3)-CodonPlus E. coli; His6-MBP (N, cleaved yes)
T1 sequence (P01116 with tags, fused parts or gaps isoform P01116-2): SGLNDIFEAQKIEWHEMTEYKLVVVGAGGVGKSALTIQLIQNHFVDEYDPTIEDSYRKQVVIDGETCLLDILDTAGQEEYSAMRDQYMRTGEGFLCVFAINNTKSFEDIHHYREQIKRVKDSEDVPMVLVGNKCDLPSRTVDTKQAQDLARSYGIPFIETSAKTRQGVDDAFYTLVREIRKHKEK
Method: (§1) When RAS proteins are in the active GTP-bound conformation, they bind the effector protein RAF1 at the N-terminus Ras-binding domain (RBD, residues 52-131) (Tran, et al., 2021). Homogenous time resolved fluorescence (HTRF) was used to monitor the interaction between wt or mutant KRAS and RAF1 or wt NRAS and RAF1. Compounds were assayed in the presence of KRAS G12D/V and RAF1 versus wt KRAS to assess activity against mutant and w.t. KRAS. Similarly, compounds were then assayed in the presence of w.t. NRAS and RAF1 to assess RAS isoform selectivity. In all assay formats, His-tagged RAF1 protein was incubated with the HTRF donor, anti-6His Tb Cryptate gold (Cisbio 61DB10RDF), and biotinylated RAS proteins were incubated with the HTRF acceptor, streptavidin-d2 (CisBio 610SADLA). The intensity of the fluorescence signal emitted is proportional to binding between the two proteins. The donor solution was prepared by mixing 16 nM His-tagged RAF1 in protein dilution buffer with 1:100 anti-6His Tb cryptate in PPI-Terbium detection buffer. 16 nM biotinylated RAS protein was diluted into protein dilution buffer (50 mM Tris-HCl pH 7.5, 150 mM NaCl, 0.1 mM MgCl2, 1 mM TCEP, 0.005% Tween20) and mixed with 1:2000 Streptavidin-d2 diluted in PPI-Terbium detection buffer (CisBio 61DB10RDF). 50× compound in DMSO was mixed with 16 nM KRAS-acceptor solution and incubated for 30 minutes at room temperature. After compound pre-incubation with KRAS, the RAF1 donor solution was added to the KRAS-acceptor solution and incubated for 1 hour at room temperature. The fluorescence signal emitted was monitored at 665 nm and 615 nm using an Envision multimode plate reader. The HTRF ratio (665/615) was calculated and normalized to 0% inhibition in the absence of compound and 100% inhibition in the presence of untagged RAF1 protein. PPI KRAS G12D/RAF1, KRAS G12V/RAF1, w.t. KRAS/RAF1 and NRAS/RAF1 IC50 (uM) values of selected compounds are depicted in Table 3 and Table 4 with compounds having a value <0.1 uM as ++++; ≥0.1 uM to 1 uM as +++; ≥1 uM to 10 uM as ++; ≥10 uM to 100 uM as +; and ≥100 uM as NA.

[2] = target: T2, KRAS G12D/RAF1 (Homo sapiens, UniProt P01116, G12D); test: Protein-protein interaction (PPI) HTRF assay KRAS G12D/RAF1; type: binding; conditions: Table 2
T2 construct: KRAS (1-169) proteins were expressed in BL21 (DE3)-CodonPlus E. coli; His6-MBP (N, cleaved yes)
T2 sequence (P01116 with tags, fused parts or gaps isoform P01116-2 G12D): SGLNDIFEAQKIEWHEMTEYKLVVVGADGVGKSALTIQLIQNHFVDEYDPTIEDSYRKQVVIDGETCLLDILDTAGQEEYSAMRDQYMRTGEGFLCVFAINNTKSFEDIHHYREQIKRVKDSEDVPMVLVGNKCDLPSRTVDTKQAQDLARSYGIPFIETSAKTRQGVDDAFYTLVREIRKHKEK
Method: as §1

[3] = target: GST-tagged KRAS-G12V (2-169) (Homo sapiens, UniProt P01116, G12V); test: Nucleotide exchange assay (NEA), SOS-mediated, HTRF, KRAS G12V; type: biochemical; conditions: Table 4; IC50 extracted at 90 min; 80 nM SOS
GST-tagged KRAS-G12V (2-169), sequence (P01116 2-169 isoform P01116-2 G12V): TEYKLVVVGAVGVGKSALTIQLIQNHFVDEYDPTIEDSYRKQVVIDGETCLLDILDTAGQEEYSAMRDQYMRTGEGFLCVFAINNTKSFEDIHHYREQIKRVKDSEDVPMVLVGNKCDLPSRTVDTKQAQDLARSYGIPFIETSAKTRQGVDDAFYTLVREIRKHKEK
Summary of the method: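 GST-KRAS-G12V (2-169), 0.25 nM, pre-incubated 1 h at RT with compound, then SOS1cat (564-1049) 80 nM and GTP-DY-647P1 150 nM added in HEPES pH 7.3 buffer with MgCl2 and DTT. HTRF via anti-GST Tb cryptate read over 90 min; IC50 from 4-parameter fit at 90 min, blanked to no-SOS reactions.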

[4] = target: T3, KRAS G12V/RAF1 (Homo sapiens, UniProt P01116, G12V); test: Protein-protein interaction (PPI) HTRF assay KRAS G12V/RAF1; type: binding; conditions: Table 3
T3 construct: KRAS (1-169) proteins were expressed in BL21 (DE3)-CodonPlus E. coli; His6-MBP (N, cleaved yes)
T3 sequence (P01116 with tags, fused parts or gaps isoform P01116-2 G12V): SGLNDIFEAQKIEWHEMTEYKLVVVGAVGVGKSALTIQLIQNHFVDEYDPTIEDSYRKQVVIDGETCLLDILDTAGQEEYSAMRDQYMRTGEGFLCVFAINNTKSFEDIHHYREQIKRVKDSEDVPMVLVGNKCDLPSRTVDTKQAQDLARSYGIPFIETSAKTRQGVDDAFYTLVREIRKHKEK
Method: as §1

[5] = test system: phospho-ERK in GP2D (KRAS-G12D) cells; test: pERK In Cell Western (ICW) assay (Method B), GP2D; type: cell-based; conditions: GP2d, 3 h, Table 4
Summary of the method: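 Cells were seeded at 5,000/well (AGS) or 10,000/well (GP2D, SW620), grown overnight, then treated 3 h at 37 °C with a ½-log 9-point compound dilution. Fixed cells were stained for phospho-ERK with DRAQ5 as DNA counterstain; pERK/DRAQ5 ratio as percent of blank control gave IC50 by 4-parameter fit.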

[6] = target: GST-tagged KRAS-G12D (2-169) (Homo sapiens, UniProt P01116, G12D); test: Nucleotide exchange assay (NEA), SOS-mediated, HTRF, KRAS G12D; type: biochemical; conditions: IC50 extracted at 30 min, 20 nM SOScat
GST-tagged KRAS-G12D (2-169), sequence (P01116 2-169 isoform P01116-2 G12D): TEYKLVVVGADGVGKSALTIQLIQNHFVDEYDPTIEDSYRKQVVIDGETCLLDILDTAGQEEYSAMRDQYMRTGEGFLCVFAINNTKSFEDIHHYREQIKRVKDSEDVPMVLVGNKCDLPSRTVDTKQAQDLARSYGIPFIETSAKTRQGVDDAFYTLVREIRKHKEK
Summary of the method: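 Compound preincubated 1 h at RT with 0.25 nM GST-KRAS-G12D (2-169) and anti-GST Tb donor, then 20 nM SOS1cat (564-1049) and 150 nM GTP-DY-647P1 added; pH 7.3 HEPES buffer with MgCl2 and DTT. HTRF monitored at RT; % inhibition versus DMSO and no-SOS blank, 4-parameter IC50 taken at 30 min.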

[7] = test system: phospho-ERK in AGS cells; test: pERK In Cell Western (ICW) assay (Method B), AGS; type: cell-based; conditions: Homo sapiens, Table 2, 3 hours
Method: pERK ICW is a high throughput screening assay to evaluate the cellular potency of mutant KRAS small molecule inhibitors. KRAS mutant cell lines AGS, GP2D (KRAS-G12D) as well as SW620 (KRAS-G12V) were purchased from ATCC and maintained respectively in RPMI/DMEM/RPMI medium supplemented with 10% fetal bovine serum.
Cells grown in exponential phase were trypsinized, resuspended in fresh media, and viable cells were counted using a cell counter with Trypan Blue (BioRad TC20). Cells were seeded into 384-well plate (Greiner 781091) at density of 5,000 cells/well for AGS and 10,000 cells/well for GP2D/SW620 and allowed to grow overnight in a 37° C. CO2 incubator. The next day, compounds were dispensed into wells with a ½ log, 9-point serial dilution using a Tecan D300e dispenser and incubated for 3 hours in a 37° C. CO2 incubator. Cells were then fixed with paraformaldehyde (Electron Microscopy Sciences, 15710, 4% final concentration) for 30 min, permeabilized with wash buffer (1×PBS+0.1% Triton X-100) for 30 min and blocked with Odyssey blocking buffer (Li—COR 927-70001) for 1 hour, all at room temperature (RT). Phospho-ERK antibody (CST 4370L) was diluted 1:500 in Odyssey T20 (PBS) antibody diluent (Li—COR 927-75001) and incubated with cells overnight at 4° C. The next day, plates were washed 5× with wash buffer, incubated with IRDye 800 CW, Goat anti-Rabbit secondary antibody (Li—COR 926-32211, 1:800) and DRAQ5 (CST 4084L, 1:5,000) diluted in Odyssey T20 (PBS) antibody diluent for 1 hour, washed 5×, and imaged on an Odyssey CLx imaging system.
For data analysis, signal intensities from 800 (phosphor-ERK) and 700 (DRAQ5) channels were extracted, and phospho-ERK signals were normalized to DRAQ5 signals for each well and percent of blank control values were computed. Data were then imported into Graphpad Prism to compute half-maximal inhibitory concentrations (IC50) using a 4-parameter variable slope model. Z-factor for each plate was computed from signals derived from wells treated with either DMSO or 5 μM of control compound. AGS pERK ICW (Method B) IC50 (uM) values of selected compounds are depicted in Table 2 with compounds having a value ≥0.001 uM to 0.01 uM as ++++; ≥0.01 uM to 0.1 uM as +++; ≥0.1 uM to 1 uM as ++; ≥1 uM to 10 uM as + and ≥10 uM as NA.

[8] = Table 2, read-out: NEA-G12D (uM) IC50
[9] = Table 4, read-out: NEA G12D IC50

Row | Structure (SMILES) | IC50 [1] [µM] | IC50 [2] [µM] | IC50 [3] [nM] | IC50 [4] [µM] | IC50 [5] [nM] | IC50 [6, 8] [µM] | IC50 [6, 9] [µM] | IC50 [7] [µM]
1 | CC1(CO)CCCN(c2nc(OC[C@@]34CCCN3C[C@H](F)C4)nc(N3CC4(CCc5sc(N)c(C#N)c54)C3)n2)C1 (stereo partly drawn) [Compound 18, 2-amino-1′-[4-[[(2R)-2-fluoro-1,2,3,5,6,7-hexahydropyrrolizin-8-yl]methoxy]-6-[3-(hydroxymethyl)-3-methyl-1-piperidyl]-1,3,5-triazin-2-yl]spiro[5,6-dihydrocyclopenta[b]thiophene-4,3′-azetidine]-3-carbonitrile] | 1 to 10 | 1 to 10 | 10 to 100 | 1 to 10 | 1000 to 20000 | 0.01 to 0.1 | 0.01 to 0.1 | 1 to 10
2 | N#Cc1c(N)sc2c1C1(CC2)CN(c2nc(OCC3(C#N)CC3)nc(OC[C@@]34CCCN3C[C@H](F)C4)n2)C1 [Compound 16, 2-amino-1′-[4-[(1-cyanocyclopropyl)methoxy]-6-[[(2R,8S)-2-fluoro-1,2,3,5,6,7-hexahydropyrrolizin-8-yl]methoxy]-1,3,5-triazin-2-yl]spiro[5,6-dihydrocyclopenta[b]thiophene-4,3′-azetidine]-3-carbonitrile] | 10 to 100 | 1 to 10 | 10 to 100 | 1 to 10 | 1000 to 20000 | 0.01 to 0.1 | 0.01 to 0.1 | 1 to 10
3 | N#Cc1c(N)sc2c1C1(CC2)CN(c2nc(OC[C@@]34CCCN3C[C@H](F)C4)nc(N3CCCC(C#N)CC3)n2)C1 (stereo partly drawn) [Compound 8, 2-amino-1′-[4-(4-cyanoazepan-1-yl)-6-[[(2R,8S)-2-fluoro-1,2,3,5,6,7-hexahydropyrrolizin-8-yl]methoxy]-1,3,5-triazin-2-yl]spiro[5,6-dihydrocyclopenta[b]thiophene-4,3′-azetidine]-3-carbonitrile] | 1 to 10 | 1 to 10 | – | 1 to 10 | – | 0.01 to 0.1 | – | –
4 | N#Cc1c(N)sc2c1C1(CC2)CN(c2nc(OC[C@@]34CCCN3C[C@H](F)C4)nc(N3CC[C@@H](O)[C@@H](O)C3)n2)C1 (racemic) [Compound 22, 2-amino-1′-[4-[rac-(3S,4R)-3,4-dihydroxy-1-piperidyl]-6-[[(2R,8S)-2-fluoro-1,2,3,5,6,7-hexahydropyrrolizin-8-yl]methoxy]-1,3,5-triazin-2-yl]spiro[5,6-dihydrocyclopenta[b]thiophene-4,3′-azetidine]-3-carbonitrile] | 1 to 10 | 1 to 10 | 10 to 100 | 10 to 100 | 1000 to 20000 | 0.01 to 0.1 | 0.01 to 0.1 | 1 to 10
